Experimental data from patent publication WO2016087994A1, “Btk inhibitors to treat solid tumors through modulation of the tumor microenvironment” (dated 2016).
“Also recorded” adds a separate entry of the source.

What was measured:
[1] = system: B cell receptor (CD69 on CD19+ B cells); assay: Inhibition of BCR signaling (CD69) on B cells in whole blood; assay type: cell-based; settings: Homo sapiens, 18 h
[2] = system: CD8 + T cells with B lymphoblast targets; assay: Cytotoxic T cell (CTL) assay; assay type: cell-based; settings: 500 nM, relative to vehicle
[3] = system: CD4 + T cells; assay: Th17 and Treg development of CD4+ T cells; assay type: cell-based
[4] = 420 mg QD; cited from earlier work
[5] = system: CD8 + T cells; assay: CD8+ T cell viability; assay type: cell-based; settings: higher concentrations of ibrutinib; any concentration of Formula (II)
[6] = system: CD8 + T cells; assay: CD8+ T cell IFN-γ levels; assay type: cell-based; settings: relative to vehicle
[7] = system: rituximab-coated Raji cells; assay: Rituximab ADCC, chromium release, Raji targets; assay type: cell-based, human; settings: 1 μM; healthy donor NK cells / Raji; listed as ibrutinib
[8] = system: GPVI platelet aggregation; assay: GPVI (convulxin-induced) human platelet aggregation; assay type: cell-based
[9] = system: CLL/lymphoid malignancies; settings: human, in vivo; cited from earlier work
[10] = target: epidermal growth factor receptor (EGFR) (Homo sapiens, UniProt P00533); settings: cited from earlier work
Chain of epidermal growth factor receptor (EGFR) (P00533 25-1210): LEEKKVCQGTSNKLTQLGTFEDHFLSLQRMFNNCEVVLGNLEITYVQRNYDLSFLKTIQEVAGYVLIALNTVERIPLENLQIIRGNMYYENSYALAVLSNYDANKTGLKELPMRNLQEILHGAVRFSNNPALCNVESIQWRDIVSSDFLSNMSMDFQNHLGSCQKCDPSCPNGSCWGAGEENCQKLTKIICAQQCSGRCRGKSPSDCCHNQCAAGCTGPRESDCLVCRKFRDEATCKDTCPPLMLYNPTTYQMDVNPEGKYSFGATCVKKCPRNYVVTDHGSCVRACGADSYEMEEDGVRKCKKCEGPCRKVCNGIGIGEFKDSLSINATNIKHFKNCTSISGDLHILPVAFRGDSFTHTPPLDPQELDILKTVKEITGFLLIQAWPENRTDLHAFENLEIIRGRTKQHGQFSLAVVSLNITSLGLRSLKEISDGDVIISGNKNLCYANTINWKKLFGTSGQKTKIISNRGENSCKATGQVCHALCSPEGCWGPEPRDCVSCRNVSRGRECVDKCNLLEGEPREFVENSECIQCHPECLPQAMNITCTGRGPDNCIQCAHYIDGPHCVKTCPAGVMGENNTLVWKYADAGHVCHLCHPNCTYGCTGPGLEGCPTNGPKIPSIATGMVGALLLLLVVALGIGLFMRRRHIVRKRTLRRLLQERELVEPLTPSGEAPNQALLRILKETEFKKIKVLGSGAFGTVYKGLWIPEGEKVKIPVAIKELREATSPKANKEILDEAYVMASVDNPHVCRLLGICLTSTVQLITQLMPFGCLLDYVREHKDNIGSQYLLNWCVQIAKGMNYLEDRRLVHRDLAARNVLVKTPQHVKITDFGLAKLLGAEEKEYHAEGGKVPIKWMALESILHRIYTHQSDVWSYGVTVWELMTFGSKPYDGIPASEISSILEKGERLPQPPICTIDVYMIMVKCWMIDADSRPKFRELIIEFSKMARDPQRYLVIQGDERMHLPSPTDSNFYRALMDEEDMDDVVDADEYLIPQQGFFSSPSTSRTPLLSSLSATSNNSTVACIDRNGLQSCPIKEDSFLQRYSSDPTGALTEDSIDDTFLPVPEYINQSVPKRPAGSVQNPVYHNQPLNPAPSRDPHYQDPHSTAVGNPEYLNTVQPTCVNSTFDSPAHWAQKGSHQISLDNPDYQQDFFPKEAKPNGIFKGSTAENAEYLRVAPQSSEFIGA

[11] = system: CLL; settings: cited from earlier work
[12] = system: human platelet-mediated thrombosis; assay: In vivo human platelet thrombus formation after laser injury in VWF HA1 mice; parameters: species or system human platelets in VWF HA1 mice
[13] = system: metastatic pancreatic cancer; settings: Phase 3; P < 0.001; cited from earlier work
[14] = Phase 1, previously treated CLL, monotherapy

## C=CC(=O)N1CCC[C@@H](n2nc(-c3ccc(Oc4ccccc4)cc3)c3c(N)ncnc32)C1 [Formula (X), l-[(3i?)-3-[4-amino-3-(4-phenoxyphenyl)-lH-pyrazolo[3,4-i]pyrimidin-l-yl]piperidin-l-yl]prop-2-en-l-one]
[1]
  EC50: 6.1 nM
[2]
  CD8+ T cell function as % cytotoxicity (in words): affects CD8 + T cell function
[3]
  Th17 development (in words): profound inhibition of Thl7 cells
  Treg development (in words): increase in Treg development
[4]
  bleeding events in CLL: 63%
[5]
  CD8+ T cell viability (in words): strong, negative effect on CD8 + T cell viability
[6]
  CD8+ T cell function as IFN-γ level (in words): affects CD8 + T cell function; also recorded: significant loss of function
[7]
  inhibition of rituximab ADCC (in words): completely inhibited ADCC; also recorded: strongly inhibited the antibody-dependent lysis of target cells
[8]
  inhibition of GPVI platelet aggregation (in words): significantly inhibits GPVI platelet aggregation
[8]; Homo sapiens, Platelet, read-out: IC50, GPVI platelet aggregation
  IC50: 130 nM
[9]
  onset of lymphocytosis after start of therapy: 1-2 weeks
  time to plateau of lymphocytosis: 2-3 cycles
[10]
  inhibition of EGFR (in words): inhibits epidermal growth factor receptor (EGFR)

## obinutuzumab: humanized monoclonal antibody directed against CD20
[11]; [14]
  MRD-negative complete responses: 1
  response rate: 62%
[11]; R/R CLL, Phase 1 portion, n=13
  infusion related reactions (IRR), Grade 3: 15%
  infusion related reactions (IRR), Grade 4 (in words): no Grade 4
  infusion related reactions (IRR), all grade: 100 % of patients
[11]; R/R CLL, Phase 2 portion
  Grade 3 reactions among those with hypotension: 25%
  IRR cases developing symptoms of hypotension: 60 % of cases
  patients with IRR: 95 % of patients

## C=CC(=O)Nc1cccc(Nc2nc(Nc3ccc(OCCOC)cc3)ncc2F)c1 [Formula (XVII), N-(3-((5-fluoro-2-((4-(2-methoxyethoxy)phenyl)amino)pyrimidin-4-yl)amino)phenyl)acrylamide, reference compound]
[12]
  effect on thrombus formation (in words): interfere with thrombus formation; also recorded: an effect similar to Formula (X) (ibrutinib)

## Nc1ccn([C@@H]2O[C@H](CO)[C@@H](O)C2(F)F)c(=O)n1 [gemcitabine, 4-amino-l-((2i?,4i?,5i?)-3,3-difluoro-4-hydroxy-5-(hydroxymethyl)tetrahydrofuran-2-yl)pyrimidin-2(lH)-one]
[13]
  ORR: 7%
  median OS: 6.7 months
  median PFS: 3.7 months
